In article PMC8379256, “A xanthene derivative, DS20060511, attenuates glucose intolerance by inducing skeletal muscle-specific GLUT4 translocation in mice” (Communications Biology, 2021):
Several values for one entry are separate records, joined by “and”; a condition that tells them apart may be missing. Identical values can stand only once.

Assays:
[1] = tested on: L6-GLUT4myc myotubes; experiment: GLUT4 translocation: cell surface GLUT4myc by anti-Myc antibody assay in L6-GLUT4myc myotubes; format: cell-based, rat
[2] = tested on: IRβ, IRS1, Akt (Ser473), AS160; experiment: Phosphorylation of IRβ, IRS1, Akt and AS160 in triceps surae muscle (immunoblot); format: in vivo, mouse; settings: skeletal muscle, DS20060511 10 mg kg−1 or insulin 5 U kg−1; for phosphorylation of IRβ-subunit and IRS1: Fig. 4a; for phosphorylation of Akt and AS160: Fig. 4b
Description: The tissue sample was homogenized with a Polytron homogenizer and lysed in a lysis buffer (25 mM Tris-HCl, pH 7.4, 100 mM NaF, 50 mM Na4P2O7, 10 mM EGTA, 10 mM EDTA, 10 mM Na3VO4, 1 mM PMSF, and 1% NP-40) on ice, and the lysate was centrifuged at 17,860 × g for 10 min at 4 °C. The supernatant was collected and the protein concentrations were determined by BCA assay (Thermo Fisher Scientific). Immunoprecipitation of IRβ and IRS1 was performed as described previously, using specific antibodies against IRβ (sc-711, Santa Cruz Biotechnology, Dallas, TX), IRS1 (06-248, Merck Millipore, Burlington, MA), and for detection of phosphotyrosine (05-321, Merck Millipore). Five milligrams of the extracts were incubated with specific antibodies against IRS1 for 1 h at 4 °C. Then, protein G-Sepharose was added, followed by incubation for 2 h at 4 °C. After washing three times, the immunocomplexes were subjected to immunoblotting.
Phosphorylated or total protein of IRβ and IRS1 was resolved on 7% SDS-PAGE and analyzed using specific antibodies against IRβ, IRS1, and phosphotyrosine. Analyses were also conducted for phosphorylated Akt (1:2000), Akt (1:2,000), AS160 (1:1,000), phospho-AS160 (1:1,000), AMPKα (1:1,000), phospho-AMPKα (1:1,000), GLUT4 (1:200), Na,K-ATPaseα (1:1,000), GAPDH (1:1,000) by immunoblotting with specific antibodies after the tissue lysates were resolved on SDS-PAGE and transferred to a PVDF membrane using Trans-Blot Turbo transfer system (Bio-Rad Laboratories, Hercules, CA). Bound antibodies were detected with HRP-conjugated secondary antibodies using ECL detection reagents (GE Healthcare, Chicago, IL).

[3] = tested on: isolated skeletal muscle; experiment: 2-DG uptake in muscles isolated from NC-fed and HFD-fed mice; set-up: species or system mouse; settings: for Raio: 2-DG uptake in isolated muscles; for Raio / 2DOG Trn / IC 2DOG: individual muscles; for 2DOG Trn / IC 2DOG: isolated muscles
Description: Fig. 8 Acute and chronic DS20060511 treatment improves glucose intolerance in HFD-fed and db/db mice. a Blood glucose and plasma insulin levels during an oral GTT in normal-chow (NC)- and high-fat diet (HFD)-fed mice (n = 5). Vehicle or DS20060511 (30 mg kg^−1) was given orally 15 min before the oral glucose administration (1.5 g kg^−1). Values shown are means ± SEM. *P < 0.05, **P < 0.01, ***P < 0.001 vs. the HFD vehicle by the t-test. b Effects of 10 μM DS20060511 and 100 nM insulin on 2-DG uptake in muscles isolated from NC-fed (n = 6) and HFD-fed (n = 5) mice. Values shown are means ± SEM. **P < 0.01 by one-way ANOVA followed by Tukey’s test. c, d Changes in the blood glucose levels and AUC on day 1 and day 28 during refeeding (n = 6) in db/db mice treated chronically with DS20060511 (10 mg kg^−1 day^−1). Values shown are means ± SEM. *P < 0.05, **P < 0.01, ***P < 0.001 vs. vehicle by the t-test. e Change of the HbA1c levels in the db/db (n = 6) mice at 4 weeks. Values shown are means ± SEM. *P < 0.05 vs. vehicle by the t-test.
C57BL/6 and db/db mice were purchased from CLEA Japan, Tokyo, Japan. GLUT4- knockout mice were generated at RIKEN BioResource Center, Tsukuba, Japan, according to a previously described method. eNOS-knockout mice were kindly provided by Dr. Masato Tsutsui[41],[42]. The mice were group-housed under controlled illumination (12:12 h light-dark cycle) and temperature (23 ± 2 °C) conditions and given free access to normal chow and water, unless otherwise specified. The HFD-fed obese mice were prepared by feeding C57BL/6 mice a HFD for at least 8 weeks from 6 weeks of age. […] Male mice were used for all the experiments in this study. The animal care and experimental procedures used in the study were approved by The University of Tokyo Animal Care Committee (Approval number: 27-3), and the study was carried out in accordance with the Animal Experimentation Guidelines of Daiichi Sankyo Co., Ltd (Approved number: 20000411).
The soleus or EDL muscle was removed from anesthetized mice (isoflurane anesthesia) that had been denied access to food overnight, and incubated with oxygenated (95% O2/5% CO2) Krebs-Henseleit Bicarbonate (KHB) buffer (118.1 mM NaCl, 4.7 mM KCl, 1.1 mM KH2PO4, 1.2 mM MgSO4, 2.5 mM CaCl2, and 25 mM NaHCO3, pH7.4) in the presence of 11.1 mM glucose at 37 °C. The muscle specimens were then treated with the indicated concentrations of the compounds in KHB buffer containing 11.1 mM glucose and 8 mM mannitol for 10 min at 37 °C. Thereafter, the muscles were rinsed with KHB buffer containing 8 mM mannitol and the compounds for 5 min at 37 °C. Lastly, the muscles were treated with the compounds in KHB buffer containing 1 mM 2-DG (with 0.3 μCi mL^−1 [^3H]-2-DG) and 8 mM mannitol (with 0.03 μCi mL^−1 [^14C]-mannitol) for 10 min at 37 °C. After the muscle specimens were washed, they were lysed with 1 N NaOH and neutralized with 1 N HCl. The ^14C- and ^3H-specific activities were counted with a liquid scintillation counter. The specific uptake of 2-DG was calculated by subtracting the nonspecific uptake of mannitol from the total 2-DG uptake. To investigate the effects of muscle contraction, muscle contraction was induced by electrical stimulation with 5 Hz (1 ms pulse duration, 100 V) for 10 min (SEN-5201, Nihon Koden, Tokyo, Japan).

[4] = HFD, DS20060511 0 μM, Insulin 100 nM
[5] = NC, DS20060511 0 μM, Insulin 100 nM
[6] = HFD, DS20060511 10 μM plus Insulin 100 nM

Compound	A: Abs. (450 nm) ([1]; Insulin 100 nM)	phosphorylation of IRβ-subunit and IRS1 [2]	phosphorylation of Akt and AS160 [2]	Raio [3, 4]	Raio [3, 5]	2DOG Trn ([3]; HFD, DS20060511 0 μM, Insulin 100 nM, incubation time 10 min)	2DOG Trn [3, 4]	IC 2DOG [3, 4]	2DOG Trn ([3]; NC, DS20060511 0 μM, Insulin 100 nM, incubation time 10 min)	2DOG Trn [3, 5]	IC 2DOG [3, 5]	A: Abs. (450 nm) ([1]; DS20060511 0.1 μM, replicates 1-3)	Raio [3, 6]	suppression of insulin-induced 2-DG uptake in isolated skeletal muscle ([3]; HFD-fed mice, 10 μM DS20060511, 100 nM insulin)	2DOG Trn ([3]; HFD, DS20060511 10 μM plus Insulin 100 nM, incubation time 10 min)	2DOG Trn [3, 6]	IC 2DOG [3, 6]
Insulin: Insulin (Humulin, Eli Lilly) in the in vivo experiments; Insulin solution human (I9278, Sigma–Aldrich) in the in vitro experiments	0.287 and 0.285 and 0.286	phosphorylated	induced phosphorylation of Akt and AS160	1.28 and 1.46 and 1.65 and 1.16 and 0.85	2.15 and 2.48 and 1.82 and 1.55 and 1.68 and 2.28	25.5 µM/min and 29.1 µM/min and 32.9 µM/min and 23.1 µM/min and 14.4 µM/min	255 nmol/mL and 291 nmol/mL and 329 nmol/mL and 324 nmol/mL and 259 nmol/mL	163 nmol/g and 186 nmol/g and 216 nmol/g and 214 nmol/g and 174 nmol/g	27.4 µM/min and 29.7 µM/min and 40.3 µM/min and 38.9 µM/min and 44.9 µM/min and 32.9 µM/min	274 nmol/mL and 297 nmol/mL and 403 nmol/mL and 389 nmol/mL and 449 nmol/mL and 329 nmol/mL	192 nmol/g and 210 nmol/g and 264 nmol/g and 259 nmol/g and 303 nmol/g and 223 nmol/g						
COc1ccc2c(C)c(C(=O)O)ccc2c1C1C2=C(CC(C)(C)CC2=O)OC2=C1C(=O)CC(C)(C)C2 [DS20060511]		no such phosphorylation of these proteins was observed	no such effect									0.190 (2×) and 0.196	2.30 and 2.20 and 2.00 and 1.46 and 1.88	completely restored	45.7 µM/min and 43.8 µM/min and 39.8 µM/min and 37.4 µM/min	457 nmol/mL and 438 nmol/mL and 436 nmol/mL and 374 nmol/mL	292 nmol/g and 276 nmol/g and 268 nmol/g and 283 nmol/g and 257 nmol/g
